We go through 28 compounds from patent US8119630B2 (Arrow Therapeutics Limited, priority 2002, dated 2012).

For data set [1], the system named is RSV. The data set is described as follows: XTT assay, RSV-infected Hep-2 cells. Type of data set: cell-based, Respiratory Syncytial Virus (RSV). Conditions: Table 2, Examples 75 to 82 and 125 to 184, Hep-2 cells infected with RSV, 6 days at 37° C. As to the method:
Examples 75 to 82 and 125 to 184 were tested according to the protocol described below.
(§1) The inner 60 wells of 96 well tissue culture plates were seeded with Hep-2 cells at 4×10^4 cells/well for compound activity and toxicity studies in 100 μl of medium and incubated at 37° C. overnight or until nearing confluency.
Cells were infected with 25 μl RSV previously titrated to give 80% cell kill. To each well 25 μM of test compound were added. The final DMSO concentration was 0.5%. Some 200 μl of sterile distilled water were added to the outer wells of the plate and incubated at 37° C. for 6 days. Some 0.25 μl/ml PMS were added to stock […] solution, final conc. 25 μM PMS. Then 25 μl warmed XTT/PMS solution were added to each well and incubated for 1 hour at 37° C.
Maximum OD450nm reading (uninfected, untreated control cells) corresponded to 100% inhibition. Minimum OD450nm readings (infected control cells) corresponded to 0% inhibition. Log 10 concentration was plotted against OD450nm and IC50 values were calculated from either reading 50% value from graph or using regression analysis.
A general note: Tetrazolium dyes change colour on reduction, which living cells bring about.

The subject of data set [2] is Hep-2 cells. The data set is described as follows: Toxicity studies (XTT), Hep-2 cells. Format: cell-based. On the set-up: TC50 (6d): unit not given beside the values. The settings on record: for TC50 (2d): Table 2, Examples 75 to 82 and 125 to 184, 2d; for TC50 (6d): Table 2, Examples 75 to 82 and 125 to 184, 6d. On the procedure:
as §1
Cells were infected with 25 μl RSV previously titrated to give 80% cell kill. To each well 25 μM of test compound were added. The final DMSO concentration was 0.5%. […] Some 0.25 μl/ml PMS were added to stock […] solution, final conc. 25 μM PMS. Then 25 μl warmed XTT/PMS solution were added to each well and incubated for 1 hour at 37° C.

The mark [3] stands for this setting: human respiratory syncytial virus, 144 h.

Bounds are passed on as bounds.

Broadly, the IC50 is the concentration needed to halve the response being measured. As for `Cc1cc(C(=O)NC2N=C(c3ccccc3)c3ccccc3NC2=O)oc1C` (stereo not drawn) [Example 152, 4,5-Dimethyl-furan-2-carboxylic acid (2-oxo-5-phenyl-2,3-dihydro-1H-benzo[e][1,4]diazepin-3-yl)amide], half-maximal inhibition in data set [1] (setting [3]) (IC50) was put at 0.3 µM. In data set [2], the TC50 (2d) was > 100 µM. Moreover, the “TC50 (6d)” value in data set [2] (in µM) turned out to be 100.

The compound `O=C1Nc2ccc(Cl)cc2C(c2ccccc2)=NC1NC(=O)N1CCCCC1` (stereo not drawn) [Example 153, Piperidine-1-carboxylic acid (7-chloro-2-oxo-5-phenyl-2,3-dihydro-1H-benzo[p][1,4]diazepin-3-yl)-amide] displayed an IC50 in data set [1] of 5 µM. Also, the TC50 (2d) in data set [2] was > 100 µM. Also, in data set [2] (in µM), the “TC50 (6d)” value is listed as >100.

In turn, `O=C(NC1N=C(c2ccccc2)c2ccccc2NC1=O)c1cnccn1` (stereo not drawn) [Example 162] came in with an IC50 in data set [1] of 2 µM. In addition, the TC50 (2d) in data set [2] was > 100 µM. In addition, the “TC50 (6d)” value in data set [2] (in µM) is listed as >100.

Consider `COc1cccc(C2=NC(NC(=O)C(C)C)C(=O)Nc3ccccc32)c1` (stereo not drawn) [Example 163], for which, in data set [1], the IC50 was 5 µM. Besides, in data set [2], the “TC50 (2d)” value is listed as >100 and the “TC50 (6d)” value is given as >100.

For the compound `O=C(NC1N=C(c2ccccc2)c2ccc(Cl)cc2NC1=O)C1CCCCC1` (stereo not drawn) [Example 168, Cyclohexanecarboxylic acid (8-chloro-2-oxo-5-phenyl-2,3-dihydro-1H-benzo[e][1,4]diazepin-3-yl)-amide], the IC50 in data set [1] (setting [3]) amounted to 5 µM. The TC50 (2d) in data set [2] is > 100 µM. Also, the “TC50 (6d)” value in data set [2] (in µM) is given as >100.

`Cc1ccc2c(c1)NC(=O)C(NC(=O)c1cccs1)N=C2c1ccccc1` (stereo not drawn) [Example 169, Thiophene-2-carboxylic acid (8-methyl-2-oxo-5-phenyl-2,3-dihydro-1H-benzo[e][1,4]diazepin-3-yl)-amide] registered an IC50 in data set [1] (setting [3]) of 5 µM. The compound further showed a TC50 (2d) in data set [2] of 50 µM. Moreover, in data set [2] (in µM), the “TC50 (6d)” value is recorded as 30.

Consider `O=C(Nc1cccs1)NC1N=C(c2ccccc2)c2ccccc2NC1=O` (stereo not drawn) [Example 170, 1-(2-Oxo-5-phenyl-2,3-dihydro-1H-benzo[e][1,4]diazepin-3-yl)-3-thiophene-2-yl-urea], for which the IC50 in data set [1] (setting [3]) stood at 3.4 µM. Further, the “TC50 (6d)” value in data set [2] (in µM) was >50.

In data set [1] (setting [3]), `O=C(Nc1ccsc1)NC1N=C(c2ccccc2)c2ccccc2NC1=O` (stereo not drawn) [Example 171, 1-(2-Oxo-5-phenyl-2,3-dihydro-1H-benzo[e][1,4]diazepin-3-yl)-3-thiophene-3-yl-urea] showed an IC50 of 4.8 µM. For the same compound, the “TC50 (6d)” value in data set [2] (in µM) is >50.

In data set [1] (setting [3]), `O=C(NC1N=C(c2ccccc2)c2ccccc2NC1=O)c1ccccn1` (stereo not drawn) [Example 172, Pyridine-2-carboxylic-acid (2-oxo-5-phenyl-2,3-dihydro-1H-benzo[e][1,4]diazepin-3-yl)-amide] came in with an IC50 of 6.4 µM. Also, the “TC50 (6d)” value in data set [2] (in µM) is listed as 137.8.

Compound `O=C(NC1N=C(c2ccccc2)c2ccccc2NC1=O)c1cn[nH]c1` (stereo not drawn) [Example 173, 1H-Pyrazole-4-carboxylic acid (2-oxo-5-phenyl-2,3-dihydro-1H-benzo[e][1,4]diazepin-3-yl)-amide] displayed an IC50 in data set [1] (setting [3]) of 8.3 µM. For the same compound, in data set [2] (in µM), the “TC50 (6d)” value stood at 95.

Turning to `CN(C)c1ccc(C(=O)NC2N=C(c3ccccc3)c3ccccc3NC2=O)cn1` (stereo not drawn) [Example 174, 6-Dimethylamino-N-(2-oxo-5-phenyl-2,3-dihydro-1H-benzo[e][1,4]diazepin-3-yl)-nicotinamide], in data set [1] (setting [3]), the IC50 amounted to 6.9 µM. Further, the “TC50 (6d)” value in data set [2] (in µM) was 60.

Regarding `CCOc1ccc2ccccc2c1C(=O)NC1N=C(c2ccccc2)c2ccccc2NC1=O` (stereo not drawn) [Example 175, 2-Ethoxy-naphthalene-1-carboxylic acid (2-oxo-5-phenyl-2,3-dihydro-1H-benzo[e][1,4]diazepin-3-yl)-amide], it took 8.2 µM to reach half-maximal inhibition in data set [1] (setting [3]) (IC50). Besides, in data set [2] (in µM), the “TC50 (6d)” value is recorded as >50.

`O=C(NC1N=C(c2ccccc2)c2ccccc2NC1=O)c1cccc2c1C(=O)c1ccccc1-2` (stereo not drawn) [Example 176, 9-Oxo-9H-fluorene-1-carboxylic acid (2-oxo-5-phenyl-2,3-dihydro-1H-benzo[e][1,4]diazepin-3-yl)-amide] returned an IC50 in data set [1] (setting [3]) of 4.3 µM. In addition, in data set [2] (in µM), the “TC50 (6d)” value is 99.

As to `O=C1Nc2ccccc2C(c2ccccc2)=NC1NC(=O)n1c(=O)[nH]c2ccccc21` (stereo not drawn) [Example 177, 2-Oxo-2,3-dihydro-benzoimidazole-1-carboxylic acid (2-oxo-5-phenyl-2,3-dihydro-1H-benzo[e][1,4]diazepin-3-yl)-amide], the concentration for half-maximal inhibition (IC50) in data set [1] (setting [3]) amounted to 4.3 µM. The “TC50 (6d)” value in data set [2] (in µM) is reported as >50.

`CC(C)(C)OC(=O)NC1N=C(c2ccccc2)c2ccccc2NC1=O` (stereo not drawn) [Example 178, (2-Oxo-5-phenyl-2,3-dihydro-1H-benzo[e][1,4]diazepin-3-yl)carbamic acid tert-butyl ester] came in with an IC50 in data set [1] (setting [3]) of 4.3 µM. In addition, the “TC50 (6d)” value in data set [2] (in µM) is recorded as >50.

Consider `O=C(N[C@H]1N=C(c2ccccc2)c2ccccc2NC1=O)c1cc(Br)c(Br)o1` [Example 179, (S)-4,5-Dibromo-furan-2-carboxylic acid (2-oxo-5-phenyl-2,3-dihydro-1H-benzo[e][1,4]diazepin-3-yl)-amide], for which, in data set [1] (setting [3]), the half-inhibitory concentration (IC50) amounted to 3.9 µM. The “TC50 (6d)” value in data set [2] (in µM) is reported as >50.

In turn, `O=C(N[C@H]1N=C(c2ccccc2)c2ccccc2NC1=O)c1cc2ccccc2o1` [Example 180, (S)-Benzofuran-2-carboxylic acid (2-oxo-5-phenyl-2,3-dihydro-1H-benzo[e][1,4]diazepin-3-yl)-amide] returned an IC50 in data set [1] (setting [3]) of 2.6 µM. In data set [2] (in µM), the “TC50 (6d)” value was 37.1.

`COC(=O)NC1N=C(c2ccccc2)c2ccccc2NC1=O` (stereo not drawn) [Example 181, (2-Oxo-5-phenyl-2,3-dihydro-1H-benzo[e][1,4]diazepin-3-yl)-carbamic acid methyl ester] displayed an IC50 in data set [1] (setting [3]) of 9.6 µM. Further, the “TC50 (6d)” value in data set [2] (in µM) was >50.

Take `CCOC(=O)NC1N=C(c2ccccc2)c2ccccc2NC1=O` (stereo not drawn) [Example 182, (2-Oxo-5-phenyl-2,3-dihydro-1H-benzo[e][1,4]diazepin-3-yl)-carbamic acid ethyl ester]: the IC50 in data set [1] (setting [3]) stood at 10 µM. In addition, the “TC50 (6d)” value in data set [2] (in µM) is >50.

For the compound `CC(C)COC(=O)NC1N=C(c2ccccc2)c2ccccc2NC1=O` (stereo not drawn) [Example 183, (2-Oxo-5-phenyl-2,3-dihydro-1H-benzo[e][1,4]diazepin-3-yl)-carbamic acid isobutyl ester], in data set [1] (setting [3]), 9.88 µM corresponded to half-maximal inhibition (IC50). In data set [2] (in µM), the “TC50 (6d)” value was >50.

The compound `O=C(NC1N=C(c2ccccc2)c2ccccc2NC1=O)C(=O)c1cccs1` (stereo not drawn) [Example 184, 2-Oxo-N-(2-oxo-5-phenyl-2,3-dihydro-1H-benzo[e][1,4]diazepin-3-yl)-2-thiophene-2-yl-acetamide] displayed an IC50 in data set [1] (setting [3]) of 9.5 µM. In addition, the TC50 (2d) in data set [2] was > 50 µM.

As to “Cyclohexanecarboxylic acid [5-(3-chloro-phenyl)-2-oxo-5-phenyl-2,3-dihydro-1H-benzo[e][1,4]diazepin-3-yl]-amide [Example 158]”, the IC50 in data set [1] was 2 µM. For the same compound, the TC50 (2d) in data set [2] worked out at 100 µM. Moreover, in data set [2] (in µM), the “TC50 (6d)” value was >100.

Consider “Cyclohexanecarboxylic acid [5-(3-methoxy-phenyl)-2-oxo-5-phenyl-2,3-dihydro-1H-benzo[e][1,4]diazepin-3-yl]-amide [Example 165]”, for which, in data set [1], the IC50 worked out at 2 µM. For the same compound, the TC50 (2d) in data set [2] was > 100 µM. In addition, the “TC50 (6d)” value in data set [2] (in µM) is >100.

“Furan-2-carboxylic acid [5-(3-chloro-phenyl)-2-oxo-5-phenyl-2,3-dihydro-1H-benzo[e][1,4]diazepin-3-yl]-amide [Example 156]” gave an IC50 in data set [1] of 1.5 µM. Also, in data set [2], the TC50 (2d) was found to be 100 µM. In data set [2] (in µM), the “TC50 (6d)” value came to 100.

In data set [1], “N-[5-(3-Chloro-phenyl)-2-oxo-5-phenyl-2,3-dihydro-1H-benzo[e][1,4]diazepin-3-yl)acetamide [Example 154]” came in with an IC50 of 3 µM. Further, the TC50 (2d) in data set [2] was > 100 µM. Besides, the “TC50 (6d)” value in data set [2] (in µM) is reported as >100.

For “N-[5-(3-Chloro-phenyl)-2-oxo-5-phenyl-2,3-dihydro-1H-benzo[e][1,4]diazepin-3-yl]-isobutyramide [Example 155]”, in data set [1], half-maximal inhibition (IC50) was put at 6 µM. Also, in data set [2], the TC50 (2d) was > 100 µM. In addition, the “TC50 (6d)” value in data set [2] (in µM) is >100.

“N-[5-(3-Chloro-phenyl)-2-oxo-5-phenyl-2,3-dihydro-1H-benzo[e][1,4]diazepin-3-yl]isonicotinamide [Example 160]” registered a 50% inhibitory concentration (IC50) in data set [1] of 10 µM. Moreover, the TC50 (2d) in data set [2] was > 100 µM. Further, in data set [2] (in µM), the “TC50 (6d)” value was >100.

“Piperidine-1-carboxylic acid [5-(3-chloro-phenyl)-2-oxo-5-phenyl-2,3-dihydro-1H-benzo[e][1,4]diazepin-3-yl]-amide [Example 159]” gave an IC50 in data set [1] of 2 µM. Further, the TC50 (2d) in data set [2] was > 100 µM. Moreover, the “TC50 (6d)” value in data set [2] (in µM) is listed as >100.
